# Measurements reported in US10065924B2, “Preparation and biological evaluation of viridicatumtoxin analogs” (priority 2014, dated 2018).
# Legend:
# [1] = test system: Enterococcus faecalis S613; assay: Micro-broth MIC assay, E. faecalis S613; format: cell-based; conditions: for MIC: Enterococcus faecalis, S613, read-out: Minimum Inhibitory Concentration (MIC) E. faecalis S613; for Minimum Inhibitory Concentration (MIC) E. faecalis S613: Gram-(+), clinical strain, triplicate, no growth after 16-24 hours at 37° C.
# Experimental: (§1) Four clinical strains were used for these studies, Enterococcus faecalis S613, Enterococcus faecium isolate 105, Methicillin-Resistant Staphylococcus aureus 371 (MRSA 371) and Acinetobacter baumannii AB210. Enterococcus strains were cultured in 80% Lysogeny Broth (LB) & 20% Brain Heart Infusion (BHI). MRSA 371 and AB210 were cultured in 100% LB.
# (§2) Micro-broth MIC assays were performed in triplicate using 96-well plates. Wells were filled with 150 μL of broth media and inoculated with 2 μL of stationary phase culture. The concentration of the test antibiotics increased in 2-fold increments and ranged from 0.25-128 μg/mL. Plates were incubated overnight at 37° C. and the MICs were defined as the lowest drug concentration that had no growth after 16-24 hours.
# E. faecium 501 = assay: Micro-broth MIC assay, E. faecium 501; format: cell-based, Enterococcus faecium; conditions: Gram-(+), clinical strain, triplicate, no growth after 16-24 hours at 37° C.; for MIC: Enterococcus faecium, 501, read-out: Minimum Inhibitory Concentration (MIC) E. faecium 501
# [2] = test system: Methicillin-Resistant Staphylococcus aureus 371 (MRSA 371); assay: Micro-broth MIC assay, MRSA 371; format: cell-based; conditions: for MIC: Staphylococcus aureus, MRSA, read-out: Minimum Inhibitory Concentration (MIC) MRSA 371; for Minimum Inhibitory Concentration (MIC) MRSA 371: Gram-(+), clinical strain, triplicate, no growth after 16-24 hours at 37° C.
# Experimental: as §1, §2
# [3] = test system: Acinetobacter baumannii AB210; assay: Micro-broth MIC assay, A. baumannii AB210; format: cell-based; conditions: for MIC: Acinetobacter baumannii, AB210, read-out: Minimum Inhibitory Concentration (MIC) A. baumannii AB210; for Minimum Inhibitory Concentration (MIC) A. baumannii AB210: Gram-(−), clinical strain, triplicate, no growth after 16-24 hours at 37° C.
# Experimental: as §1, §2
Compound,MIC [1] [µg/mL],MIC (E. faecium 501) [µg/mL],MIC [2] [µg/mL],MIC [3] [µg/mL],Minimum Inhibitory Concentration (MIC) E. faecalis S613 [1] [µg/mL],Minimum Inhibitory Concentration (MIC) E. faecium 501 (E. faecium 501) [µg/mL],Minimum Inhibitory Concentration (MIC) MRSA 371 [2] [µg/mL],Minimum Inhibitory Concentration (MIC) A. baumannii AB210 [3] [µg/mL]
COc1cc(O)c2c(O)c3c(c4c2c1[C@]1(C4)C(C)=CCCC1(C)C)C(=O)[C@H]1CC(O)=C(C(N)=O)C(=O)[C@@]1(O)C3=O (racemic) [(±)-V2],0.5,0.5,2,64,–,–,–,–
COc1cc(O)c2c(O)c3c(c4c2c1[C@@]1(C4)C(C)=CCCC1(C)C)C(=O)[C@H]1CC(O)=C(C(N)=O)C[C@@]1(O)C3=O (racemic) [(±)-V3],4,2,8,64,–,–,–,–
COc1cc(OC)c2c(O)c3c(c4c2c1[C@@]1(C4)C(C)=CCCC1(C)C)C(=O)[C@H]1CC(O)=C(C(N)=O)C[C@@]1(O)C3=O (racemic) [(±)-V4],4,4,4,64,–,–,–,–
COc1cc(O)c2c(O)c3c(c4c2c1[C@]1(C4)C(C)=CCCC1(C)C)[C@H](O)[C@H]1CC(O)=C(C(N)=O)C(=O)[C@@]1(O)C3=O (racemic) [(±)-V5],1,1,8,64,–,–,–,–
COc1cc(O)c2c(O)c3c(c4c2c1[C@]1(C4)C(C)=CCCC1(C)C)[C@@H](O)[C@H]1CC(O)=C(C(N)=O)C(=O)[C@@]1(O)C3=O (racemic) [(±)-V6],0.5,0.5,2,64,–,–,–,–
"COc1cc(O)c2c(O)c3c(c4c2c1[C@]1(C4)C(C)=CCCC1(C)C)[C@H](O)[C@@]1(O)CC(=O)C(C(N)=O)=C(O)[C@@]1(O)C3=O [(+)-2, viridicatumtoxin A]",–,–,–,–,1,1,4,64
"viridicatumtoxin B [(±)-1, reference compound]",–,–,–,–,1,0.5,4,64
